Here are results for twelve molecules from PubChem BioAssay (NCI).

“And” between values parts separate entries of the source, which are not always exact repeats. Equal entries are not always repeated.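 Five concentrations, 48 hours, 96-well plates. Abbreviation: GI50, concentration required for 50% inhibition of growth. Definition used: TGI = concentration required for complete inhibition of growth.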

Some test systems named below: HCC-2998 colon; K-562 leukemia; OVCAR-3 ovarian; OVCAR-4 ovarian; SF-295 CNS; SF-539 CNS; SK-MEL-2 melanoma; SK-MEL-28 melanoma; SK-OV-3 ovarian; T-47D breast.
What all share (experiment): inhibition of tumour cell growth, NCI panel, 48 h

On to `COc1ccc2c(c1)C(C)Cc1c(ncnc1-n1c(C)nc3ccccc31)N2C` (centres undefined), for which the GI50 was 4.09 µM with HCC-2998 colon; 0.452 µM in the test with K-562 leukemia; 2.53 µM in the test with OVCAR-3 ovarian; 6.24 µM in the test on OVCAR-4 ovarian; 1.79 µM with SF-295 CNS; 2.34 µM in the test on SF-539 CNS. Also, the GI50 in the test on SK-MEL-2 melanoma is 4.48 µM; with SK-MEL-28 melanoma, 11.1 µM; with SK-OV-3 ovarian, 3.53 µM; in the test with T-47D breast it was 6.5 µM. The TGI is 16.4 µM with HCC-2998 colon; 13.3 µM in the test with K-562 leukemia; 8.79 µM in the test with OVCAR-3 ovarian; 61.8 µM with OVCAR-4 ovarian; 7.85 µM in the test with SF-295 CNS; 6.92 µM with SF-539 CNS. In addition, the TGI came to 17.8 µM in the test with SK-MEL-2 melanoma, 26.2 µM in the test on SK-MEL-28 melanoma, 18.5 µM in the test with SK-OV-3 ovarian and 49.9 µM with T-47D breast.
Take `Cc1cc(C2CC(O)C(CO)O2)cc2c(=O)[nH]c(N)nc12` (centres undefined): the GI50 in the test with HCC-2998 colon, with K-562 leukemia, in the test on OVCAR-3 ovarian, with OVCAR-4 ovarian, in the test with SF-295 CNS and in the test on SF-539 CNS was above 100 µM in each case. In addition, the GI50 in the test on SK-MEL-2 melanoma, in the test on SK-MEL-28 melanoma, with SK-OV-3 ovarian and in the test with T-47D breast was above 100 µM each time. Moreover, the TGI in the test on HCC-2998 colon, with K-562 leukemia, in the test on OVCAR-3 ovarian, with OVCAR-4 ovarian, with SF-295 CNS and with SF-539 CNS was above 100 µM throughout. In addition, the TGI in the test with SK-MEL-2 melanoma, in the test on SK-MEL-28 melanoma, in the test on SK-OV-3 ovarian and in the test on T-47D breast was above 100 µM in each case.
Consider `NC(CS/C(Cl)=C/Cl)C(=O)O` (centres undefined), for which the GI50 with HCC-2998 colon is 68.8 µM; in the test with K-562 leukemia, 33.4 µM; in the test on OVCAR-3 ovarian, 49.2 µM; in the test on OVCAR-4 ovarian it was 38.3 µM; in the test with SF-295 CNS, 3.17 µM; with SF-539 CNS it was above 100 µM. The GI50 is 22.2 µM in the test on SK-MEL-2 melanoma, 43.6 µM with SK-MEL-28 melanoma, above 100 µM in the test with SK-OV-3 ovarian and 2.68 µM with T-47D breast. For the same molecule, the TGI was above 100 µM in the test on HCC-2998 colon; above 100 µM with K-562 leukemia; above 100 µM with OVCAR-3 ovarian; above 100 µM in the test on OVCAR-4 ovarian; 12.3 µM with SF-295 CNS; above 100 µM in the test on SF-539 CNS. The TGI in the test on SK-MEL-2 melanoma is above 100 µM; in the test with SK-MEL-28 melanoma, above 100 µM; in the test with SK-OV-3 ovarian, above 100 µM; in the test with T-47D breast, 15.2 µM.
With `NC(N)=NCCCCCNc1noc(Cc2c[nH]c3cc(Br)ccc23)n1`, the GI50 with HCC-2998 colon was 6.12 µM; in the test on K-562 leukemia it was 9.4 µM; with OVCAR-3 ovarian it was 4.4 µM; in the test on OVCAR-4 ovarian it was 12.2 µM; in the test with SF-295 CNS it was 17.8 µM; in the test on SF-539 CNS it was 12.5 µM. Moreover, the GI50 is 22.8 µM with SK-MEL-2 melanoma, 16.3 µM with SK-MEL-28 melanoma, 24 µM with SK-OV-3 ovarian and 6.04 µM in the test with T-47D breast. For the same molecule, the TGI in the test on HCC-2998 colon turned out to be 23.2 µM; in the test with K-562 leukemia, 38.6 µM; in the test on OVCAR-3 ovarian, 33.5 µM; in the test with OVCAR-4 ovarian it was 91.8 µM; in the test with SF-295 CNS, 56.6 µM; with SF-539 CNS, 29.5 µM. For the same molecule, the TGI was 57.8 µM in the test with SK-MEL-2 melanoma, 36.7 µM in the test with SK-MEL-28 melanoma, above 100 µM in the test with SK-OV-3 ovarian and 32.3 µM with T-47D breast.
`COc1ccc2c(O)cc3c(c2c1)[C@H](CCl)CN3C(=O)c1cc2cc(NC(=O)CCN3CCOCC3)ccc2[se]1`: the GI50 in the test on HCC-2998 colon, in the test on K-562 leukemia, in the test with OVCAR-3 ovarian, with OVCAR-4 ovarian, in the test on SF-295 CNS and in the test on SF-539 CNS was below 0.001 µM each time. The GI50 in the test with SK-MEL-2 melanoma, in the test on SK-MEL-28 melanoma, in the test on SK-OV-3 ovarian and with T-47D breast was below 0.001 µM throughout. In addition, the TGI is 0.00715 µM with HCC-2998 colon; above 10 µM in the test on K-562 leukemia; above 10 µM with OVCAR-3 ovarian; 0.783 µM with OVCAR-4 ovarian; below 0.001 µM with SF-295 CNS; 0.00264 µM with SF-539 CNS. Moreover, the TGI in the test with SK-MEL-2 melanoma and with SK-MEL-28 melanoma was below 0.001 µM each time.
Take `O=C(O)CC[N+]1=CCC(c2ccccc2)(c2ccccc2)O1`: the TGI with HCC-2998 colon, in the test with K-562 leukemia, with OVCAR-3 ovarian, in the test with OVCAR-4 ovarian, with SF-295 CNS and in the test on SF-539 CNS was above 100 µM each time. For the same molecule, the TGI in the test on SK-MEL-2 melanoma, in the test with SK-MEL-28 melanoma, in the test on SK-OV-3 ovarian and with T-47D breast was above 100 µM in each case.
On to `CC(=O)O[C@H](C[C@H](C(C)C)N(C)C(=O)[C@@H](NC(=O)[C@H]1CCCCN1C)C(C)C)c1nc(C(=O)N[C@@H](Cc2ccccc2)C[C@H](C)C(=O)O)c(CCOCc2ccccc2)s1`, for which the GI50 with HCC-2998 colon was below 0.001 µM; in the test with K-562 leukemia, below 0.001 µM; in the test with OVCAR-3 ovarian, below 0.001 µM; in the test on OVCAR-4 ovarian, 0.00242 µM; with SF-295 CNS, below 0.001 µM; in the test on SF-539 CNS, below 0.001 µM. The GI50 in the test with SK-MEL-2 melanoma is below 0.001 µM; in the test with SK-MEL-28 melanoma it was 0.797 µM; in the test on SK-OV-3 ovarian, below 0.001 µM; in the test with T-47D breast it was below 0.001 µM. The TGI in the test with HCC-2998 colon is 0.616 µM; with K-562 leukemia, above 10 µM; with OVCAR-4 ovarian, above 10 µM; in the test with SF-295 CNS, below 0.0297 µM; in the test with SF-539 CNS, 0.00174 µM; in the test with SK-MEL-2 melanoma it was above 5.68 µM. Besides, the TGI in the test with SK-MEL-28 melanoma, with SK-OV-3 ovarian and in the test on T-47D breast was above 10 µM in each case.
Consider `CC1CCC(=O)C(C(=O)CC2CC(=O)NC(=O)C2)C1` (centres undefined), for which the TGI in the test with HCC-2998 colon, with K-562 leukemia, in the test on OVCAR-3 ovarian, with OVCAR-4 ovarian, in the test with SF-295 CNS and with SF-539 CNS was above 100 µM each time. The TGI in the test on SK-MEL-2 melanoma, with SK-MEL-28 melanoma, in the test with SK-OV-3 ovarian and in the test on T-47D breast was above 100 µM each time.
Consider `COc1cccc(/C(COc2ccc3c(c2)oc(=O)c2cc(OC)ccc23)=N/O)c1`, for which the GI50 in the test with HCC-2998 colon is 7.78 µM; in the test with K-562 leukemia, 4.43 µM; with OVCAR-3 ovarian, 4.18 µM; with OVCAR-4 ovarian it was 18.8 µM; in the test with SF-295 CNS, 8.22 µM; with SF-539 CNS, 6.55 µM. For the same molecule, the GI50 in the test on SK-MEL-2 melanoma was 6.62 µM; in the test on SK-MEL-28 melanoma it was 4.28 µM; with SK-OV-3 ovarian, 66.1 µM; in the test on T-47D breast, 4.85 µM. The TGI is above 100 µM with HCC-2998 colon; above 100 µM with K-562 leukemia; above 100 µM with OVCAR-3 ovarian; above 100 µM in the test on OVCAR-4 ovarian; above 100 µM in the test with SF-295 CNS; 81.5 µM with SF-539 CNS. The TGI with SK-MEL-2 melanoma, in the test with SK-MEL-28 melanoma, in the test with SK-OV-3 ovarian and in the test on T-47D breast was above 100 µM throughout.
Regarding `CCC(C)(C)c1ccc(OCCCCCCN2CCNCC2)cc1`, the GI50 with HCC-2998 colon was 2 µM; in the test with K-562 leukemia it was 1.7 µM; with OVCAR-3 ovarian, 2.73 µM; in the test on OVCAR-4 ovarian, 1.96 µM; in the test on SF-295 CNS, 1.87 µM; in the test with SF-539 CNS, 1.85 µM. Further, the GI50 in the test on SK-MEL-2 melanoma was 2.19 µM; in the test with SK-MEL-28 melanoma, 1.74 µM; in the test on SK-OV-3 ovarian it was 11.3 µM; with T-47D breast, 1.72 µM. Besides, the TGI with HCC-2998 colon is 3.76 µM; in the test with K-562 leukemia, 3.93 µM; in the test with OVCAR-3 ovarian it was 7.86 µM; with OVCAR-4 ovarian, 5.03 µM; in the test on SF-295 CNS, 3.6 µM; in the test with SF-539 CNS, 3.65 µM. The TGI in the test with SK-MEL-2 melanoma worked out at 4.74 µM; with SK-MEL-28 melanoma, 3.77 µM; in the test with SK-OV-3 ovarian, 25.7 µM; in the test with T-47D breast it was 3.78 µM.
Turning to `COc1cc(CNc2ccc(SC)cc2)cc(OC)c1OC`, the GI50 with HCC-2998 colon is 11 µM and 4.92 µM; in the test on K-562 leukemia, 3.99 µM and 1.49 µM; in the test on SF-295 CNS, 8.24 µM and 3.57 µM; with SF-539 CNS it was 11.4 µM and 3.06 µM; in the test with SK-MEL-28 melanoma, 23.7 µM and 5.71 µM; in the test with SK-OV-3 ovarian, 15.4 µM and 5.05 µM. The GI50 with T-47D breast was 24.7 µM and 7.05 µM. For the same molecule, the TGI in the test with HCC-2998 colon was > 60 µM and 26.6 µM; in the test with K-562 leukemia, 44.9 µM and > 63.6 µM; in the test on OVCAR-3 ovarian, 54.1 µM and 19.6 µM; with OVCAR-4 ovarian, above 100 µM; in the test on SF-295 CNS, 53.8 µM and 22.1 µM; in the test on SF-539 CNS, 44.4 µM and 12.3 µM. The TGI in the test with SK-MEL-2 melanoma is 46 µM and > 50.6 µM; in the test on SK-MEL-28 melanoma, 99.4 µM and > 76.9 µM; with SK-OV-3 ovarian it was 64.2 µM and 44.6 µM; in the test with T-47D breast it was > 100 µM and 69.8 µM.
In the case of `COc1ccc(-c2oc3cc(O)c(OC)c(O)c3c(=O)c2OC)cc1O`, the GI50 with HCC-2998 colon was 1.22 µM; in the test on K-562 leukemia it was 0.0436 µM; in the test with OVCAR-3 ovarian, 0.0432 µM; with OVCAR-4 ovarian it was 1.26 µM; in the test on SF-295 CNS, 0.3 µM; in the test on SF-539 CNS, 0.0445 µM. Besides, the GI50 in the test with SK-MEL-2 melanoma was 0.536 µM; in the test on SK-MEL-28 melanoma it was 0.0775 µM; with SK-OV-3 ovarian, 0.207 µM; with T-47D breast it was 0.819 µM. The TGI with HCC-2998 colon was above 100 µM; in the test on K-562 leukemia, above 100 µM; in the test with OVCAR-3 ovarian it was 0.194 µM; in the test with OVCAR-4 ovarian, above 100 µM; in the test with SF-295 CNS, 2.04 µM; in the test on SF-539 CNS it was 21.9 µM. In addition, the TGI is above 100 µM with SK-MEL-2 melanoma, above 100 µM in the test with SK-MEL-28 melanoma, 16.4 µM in the test on SK-OV-3 ovarian and above 100 µM in the test with T-47D breast.
